From patent publication US10611778B2, “Fused bicyclic inhibitors of menin-MLL interaction” (Janssen Pharmaceutica NV, priority 2016, dated 2020)
Read-outs that look alike come from different tables or passages of the source.

Target: T1, Menin/MLL (terbium chelate-labeled menin, FITC-MBM1 peptide) (Homo sapiens, UniProt O00255, T541A)
T1 construct: Menin (a.a. 1-610-6×his tag) was labeled with terbium cryptate as follows
T1 sequence (O00255 with tags, fused parts or gaps T541A): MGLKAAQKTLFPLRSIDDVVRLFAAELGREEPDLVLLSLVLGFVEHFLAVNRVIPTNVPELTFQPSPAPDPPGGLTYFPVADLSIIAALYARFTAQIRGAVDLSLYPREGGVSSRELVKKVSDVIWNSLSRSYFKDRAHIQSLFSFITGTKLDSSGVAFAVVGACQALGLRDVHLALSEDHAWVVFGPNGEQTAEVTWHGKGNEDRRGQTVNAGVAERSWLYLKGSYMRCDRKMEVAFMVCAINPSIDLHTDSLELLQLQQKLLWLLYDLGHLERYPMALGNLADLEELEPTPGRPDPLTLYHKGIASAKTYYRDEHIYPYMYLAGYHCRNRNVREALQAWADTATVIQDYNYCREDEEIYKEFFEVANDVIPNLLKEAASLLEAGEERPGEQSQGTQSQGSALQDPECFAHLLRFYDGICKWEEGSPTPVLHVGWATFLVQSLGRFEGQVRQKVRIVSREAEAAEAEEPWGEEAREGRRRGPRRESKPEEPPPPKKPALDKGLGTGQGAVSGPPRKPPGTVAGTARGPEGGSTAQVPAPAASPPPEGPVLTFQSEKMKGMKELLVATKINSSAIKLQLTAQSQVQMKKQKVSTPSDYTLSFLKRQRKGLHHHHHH
Assay: Menin/MLL homogenous time-resolved fluorescence (HTRF) assay
Format: binding
Method in brief: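 Compound preincubated 5 min with terbium-cryptate-labeled menin (aa 1-610, His-tagged; 100 pM final), then 75 nM FITC-MBM1 peptide added, 15 min at ambient temperature; 0.5% DMSO, Tris pH 7.5 buffer. HTRF ratio 520/490 nm; % inhibition vs saturating competitor, IC50 from 11-point three-fold titration from 31 μM.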

[1] = averaged values over all measurements, read-out: Menin HTRF assay (IC50)

Compound	IC50 [1] [nM]	IC50 (individual measurements (not averaged), read-out: (3) Menin HTRF assay (IC50 (nM))) [nM]
Fc1ccccc1CN1CC[C@H]2CN(c3ncnc4sc(CC(F)(F)F)cc34)CC[C@H]21 (single isomer, unassigned) [Compound 6]	476	
FC(F)(F)Cc1cc2c(N3CC[C@H]4[C@H](CCN4Cc4ccc[nH]4)C3)ncnc2s1 (single isomer, unassigned) [Compound 8]		48
FC(F)(F)Cc1cc2c(N3CCC4C(CCN4Cc4ccccc4)C3)ncnc2s1 (stereo not shown) [Compound 1]	113	
FC(F)(F)Cc1cc2c(N3CCC4C3CCN4Cc3ccccc3)ncnc2s1 (stereo not shown) [Compound 2]	797	
